Data reported in patent publication US20240327359A1, “3-ISOXAZOLIDINONE COMPOUND, PREPARATION METHOD, HERBICIDAL COMPOSITION AND APPLICATION THEREOF” (QINGDAO KINGAGROOT CHEMICAL COMPOUND CO., LTD., priority 2021, published 2024).

What was measured:
Assay type in all cases: in vivo
[1] = test system: Abutilon theophrasti; experiment: Weeding effect in post-emergence stage; details: 720 g a.i./ha, 3 weeks after application
Source text: (§1) The activity level criteria for plant damage (i.e., growth control rate) are as follows:
(§2) The above growth control rates are fresh weight control rates.
(§3) Monocotyledonous and dicotyledonous weed seeds (Descurainia sophia, Capsella bursa-pastoris, Abutilon theophrasti, Galium aparine, Stellaria media, Lithospermum arvense, Rorippa indica, Alopecurus aequalis, Alopecurus japonicus, Eleusine indica, Beckmannia syzigachne, Sclerochloa dura, Phleum paniculatum, Veronica didyma, Bromus japonicus, Aegilops tauschii, Phalaris arundinacea, Amaranthus retroflexus, Chenopodiaceae, Commelina communis, Sonchus arvensis, Convolvulus arvensis, Cirsium setosum, Solanumnigrum, Acalypha australis, Digitaria sanguinalis, Echinochloa crusgalli, Setaria viridis, Setaria glauca, Leptochloa chinensis, Monochoria vaginalis, Sagittaria trifolia, Scirpus juncoides, Cyperus rotundus, Cyperus iria, Cyperus difformis, Fimbristylis, Portulaca oleracea, Xanthium sibiricum, Pharbitis nil, Conyza Canadensis, etc.) and major crop seeds (wheat, corn, rice, soybean, cotton, oilseed rape, millet, sorghum, potato, sesame, ricinus, etc.) were placed in plastic pots filled with soil, then covered with 0.5-2 cm of soil, allowed to grow in a good greenhouse environment. Two weeks after sowing, the test plants were treated in the 2-3 leaf stage. The tested compounds of the present invention were respectively dissolved in acetone, then added with Tween 80 and 1.5 liter/ha of emulsifiable concentrate of methyl oleate as synergist, diluted with a certain amount of water to obtain a solution of a certain concentration, and sprayed by a spray tower onto the plants. After the application, the plants were cultured for 3 weeks in the greenhouse, and then the experimental results of the weeding were recorded. The doses of the used compounds were 45, 90, 180, 360, 720 g a.i./ha, and the averages were obtained from three replicates.

[2] = test system: Alopecurus japonicus; experiment: Weeding effect in post-emergence stage; details: 720 g a.i./ha, 3 weeks after application
Source text: as §1, §2, §3

[3] = test system: Digitaria sanguinalis; experiment: Weeding effect in post-emergence stage; details: 720 g a.i./ha, 3 weeks after application
Source text: as §1, §2, §3

[4] = test system: Leptochloa chinensis; experiment: Weeding effect in post-emergence stage; details: 720 g a.i./ha, 3 weeks after application
Source text: as §1, §2, §3

[5] = test system: rice; experiment: Post-emergence stage, crop damage; details: 720 g a.i./ha, 3 weeks after application
Source text: as §1, §2, §3

[6] = test system: wheat; experiment: Post-emergence stage, crop damage; details: 720 g a.i./ha, 3 weeks after application
Source text: as §1, §2, §3

[7] = test system: corn; experiment: Pre-emergence stage, crop damage; details: 24 g a.i./mu, 2 weeks
Source text: as §1, §2
(§4) Monocotyledonous and dicotyledonous weed seeds (Descurainia sophia, Capsella bursa-pastoris, Abutilon theophrasti, Galium aparine, Stellaria media, Lithospermum arvense, Rorippa indica, Alopecurus aequalis, Alopecurus japonicus, Eleusine indica, Beckmannia syzigachne, Sclerochloa dura, Phleum paniculatum, Veronica didyma, Bromus japonicus, Aegilops tauschii, Phalaris arundinacea, Amaranthus retroflexus, Chenopodiaceae, Commelina communis, Sonchus arvensis, Convolvulus arvensis, Cirsium setosum, Solanumnigrum, Acalypha australis, Digitaria sanguinalis, Echinochloa crusgalli, Setaria viridis, Setaria glauca, Leptochloa chinensis, Monochoria vaginalis, Sagittaria trifolia, Scirpus juncoides, Cyperus rotundus, Cyperus iria, Cyperus difformis, Fimbristylis, Portulaca oleracea, Xanthium sibiricum, Pharbitis nil, Conyza Canadensis, etc.) and major crop seeds (wheat, corn, rice, soybean, cotton, oilseed rape, millet, sorghum, potato, sesame, ricinus, etc.) were placed in plastic pots filled with soil, then covered with 0.5-2 cm of soil, allowed to grow in a good greenhouse environment. The test plants were treated on the day of sowing. The tested compounds of the present invention were respectively dissolved in acetone, then added with Tween 80, diluted with a certain amount of water to obtain a solution of a certain concentration, and sprayed by a spray tower onto the plants. After the application, the plants were cultured for 2 weeks in the greenhouse, and then the experimental results of the weeding were recorded. The doses of the used compounds were 3, 6, 12, 24, 48 g ai./mu (1 mu=1/15 ha), and the averages were obtained from three replicates.

[8] = test system: cotton; experiment: Pre-emergence stage, crop damage; details: 2 weeks
Source text: as §1, §2, §4

[9] = test system: peanut; experiment: Pre-emergence stage, crop damage; details: 48 g a.i./mu, 2 weeks
Source text: as §1, §2, §4

[10] = test system: rice; experiment: Pre-emergence stage, crop damage; details: 2 weeks
Source text: as §1, §2, §4

[11] = test system: soy bean; experiment: Pre-emergence stage, crop damage; details: 2 weeks
Source text: as §1, §2, §4

[12] = test system: wheat; experiment: Pre-emergence stage, crop damage; details: 2 weeks
Source text: as §1, §2, §4

[13] = test system: Descurainia sophia; experiment: Weeding effect in pre-emergence stage; details: 2 weeks
Source text: as §1, §2, §4

[14] = test system: Echinochloa crusgalli; experiment: Weeding effect in pre-emergence stage; details: 2 weeks
Source text: as §1, §2, §4

[15] = test system: Leptochloa chinensis; experiment: Weeding effect in pre-emergence stage; details: 2 weeks
Source text: as §1, §2, §4

[16] = test system: Lolium perenne; experiment: Weeding effect in pre-emergence stage; details: 2 weeks
Source text: as §1, §2, §4

[17] = test system: Veronica didyma; experiment: Weeding effect in pre-emergence stage; details: 2 weeks
Source text: as §1, §2, §4

[18] = test system: weeds; experiment: Activity test of the compositions, soil sealing treatment; details: read-out: Control effect (%) of B applied alone (B)
Summary of the method: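 Pre-emergence soil spray at 450 kg/ha, 0.3 MPa, applied 72 h after sowing pre-germinated seeds, 20 seeds per pot, 4 pots, 4 repeats; actives in acetone diluted with 0.10% Tween-80. Greenhouse, 20 to 30° C; surviving weed fresh weight measured 21 days after treatment.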

[19] = test system: Echinochloa crusgalli, Scirpus juncoides, Bidens tripartita L., Sagittaria trifolia; experiment: Tests on resistance of the collected weeds to pyrazosulfuron-ethyl; details: regular doses; weed seeds collected from Heilongjiang Province of China
Source text: Note: The seeds of Echinochloa crusgalli, Scirpus juncoides and Bidens tripartita L., and Sagittaria trifolia were collected from Heilongjiang Province of China.

Structure (SMILES): CC1(C)CON(Cc2ccc(Cl)cc2Cl)C1=O [Control compound A, bixlozone]
- weeding effect in post-emergence stage, activity level (growth control rate) [1]: 4 (Level 4: growth control rate is greater than or equal to 60% and less than 85%)
- weeding effect in post-emergence stage, activity level (growth control rate) [2]: 3 (Level 3: growth control rate is greater than or equal to 40% and less than 60%)
- weeding effect in post-emergence stage, activity level (growth control rate) [3]: 3 (Level 3: growth control rate is greater than or equal to 40% and less than 60%)
- weeding effect in post-emergence stage, activity level (growth control rate) [4]: 2 (Level 2: growth control rate is greater than or equal to 20% and less than 40%)
- plant damage level (growth control rate) on crop, post-emergence stage [5]: 2 (Level 2: growth control rate is greater than or equal to 20% and less than 40%)
- plant damage level (growth control rate) on crop, post-emergence stage [6]: 3 (Level 3: growth control rate is greater than or equal to 40% and less than 60%)
- plant damage level (growth control rate) on crop, pre-emergence stage [7]: 2 (Level 2: growth control rate is greater than or equal to 15% and less than 30%)
- plant damage level (growth control rate) on crop, pre-emergence stage ([8]; 12 g a.i./mu): 1 (Level 1: growth control rate is greater than 0% and less than 15%)
- plant damage level (growth control rate) on crop, pre-emergence stage ([8]; 24 g a.i./mu): 2 (Level 2: growth control rate is greater than or equal to 15% and less than 30%)
- plant damage level (growth control rate) on crop, pre-emergence stage [9]: 1 (Level 1: growth control rate is greater than 0% and less than 15%)
- plant damage level (growth control rate) on crop, pre-emergence stage ([10]; 6 g a.i./mu): 1 (Level 1: growth control rate is greater than 0% and less than 15%)
- plant damage level (growth control rate) on crop, pre-emergence stage ([10]; 12 g a.i./mu): 2 (Level 2: growth control rate is greater than or equal to 15% and less than 30%)
- plant damage level (growth control rate) on crop, pre-emergence stage ([10]; 24 g a.i./mu): 4 (Level 4: growth control rate is greater than or equal to 40% and less than 50%)
- plant damage level (growth control rate) on crop, pre-emergence stage ([11]; 24 g a.i./mu): 1 (Level 1: growth control rate is greater than 0% and less than 15%)
- plant damage level (growth control rate) on crop, pre-emergence stage ([11]; 48 g a.i./mu): 2 (Level 2: growth control rate is greater than or equal to 15% and less than 30%)
- plant damage level (growth control rate) on crop, pre-emergence stage ([12]; 6 g a.i./mu): 1 (Level 1: growth control rate is greater than 0% and less than 15%)
- plant damage level (growth control rate) on crop, pre-emergence stage ([12]; 12 g a.i./mu): 1 (Level 1: growth control rate is greater than 0% and less than 15%)
- plant damage level (growth control rate) on crop, pre-emergence stage ([12]; 24 g a.i./mu): 2 (Level 2: growth control rate is greater than or equal to 15% and less than 30%)
- weeding effect in pre-emergence stage, activity level (growth control rate) ([13]; 3 g a.i./mu): 4 (Level 4: growth control rate is greater than or equal to 40% and less than 50%)
- weeding effect in pre-emergence stage, activity level (growth control rate) ([13]; 6 g a.i./mu): 4 (Level 4: growth control rate is greater than or equal to 40% and less than 50%)
- weeding effect in pre-emergence stage, activity level (growth control rate) ([13]; 12 g a.i./mu): 9
- weeding effect in pre-emergence stage, activity level (growth control rate) ([13]; 24 g a.i./mu): 9
- weeding effect in pre-emergence stage, activity level (growth control rate) ([14]; 3 g a.i./mu): 7 (Level 7: growth control rate is greater than or equal to 70% and less than 80%)
- weeding effect in pre-emergence stage, activity level (growth control rate) ([14]; 6 g a.i./mu): 9
- weeding effect in pre-emergence stage, activity level (growth control rate) ([14]; 12 g a.i./mu): 9
- weeding effect in pre-emergence stage, activity level (growth control rate) ([14]; 24 g a.i./mu): 9
- weeding effect in pre-emergence stage, activity level (growth control rate) ([15]; 3 g a.i./mu): 6 (Level 6: growth control rate is greater than or equal to 60% and less than 70%)
- weeding effect in pre-emergence stage, activity level (growth control rate) ([15]; 6 g a.i./mu): 9
- weeding effect in pre-emergence stage, activity level (growth control rate) ([15]; 12 g a.i./mu): 9
- weeding effect in pre-emergence stage, activity level (growth control rate) ([15]; 24 g a.i./mu): 9
- weeding effect in pre-emergence stage, activity level (growth control rate) ([16]; 6 g a.i./mu): 2 (Level 2: growth control rate is greater than or equal to 15% and less than 30%)
- weeding effect in pre-emergence stage, activity level (growth control rate) ([16]; 24 g a.i./mu): 9
- weeding effect in pre-emergence stage, activity level (growth control rate) ([17]; 6 g a.i./mu): 8 (Level 8: growth control rate is greater than or equal to 80% and less than 100%)
- weeding effect in pre-emergence stage, activity level (growth control rate) ([17]; 12 g a.i./mu): 9
- weeding effect in pre-emergence stage, activity level (growth control rate) ([17]; 24 g a.i./mu): 9
- pest or weed control at 30 g/ha ([18]; Echinochloa crus-galli, 504 h, Echinochloa crusgalli, soil treatment (S), B at 2 g a.i./mu, 21 days): 41.3%
- pest or weed control at 60 g/ha ([18]; Echinochloa crus-galli, 504 h, Echinochloa crusgalli, soil treatment (S), B at 4 g a.i./mu, 21 days): 50.3%

Structure (SMILES): CCOC(=O)c1cnn(C)c1S(=O)(=O)NC(=O)Nc1nc(OC)cc(OC)n1 [pyrazosulfuron-ethyl, reference compound]
- pest or weed control at 3.75 g/ha ([18]; Cyperus difformis, soil (S), B 0.25 g a.i./mu): 44.8%
- pest or weed control at 7.5 g/ha ([18]; Cyperus difformis, soil (S), B 0.5 g a.i./mu): 59.7%
- response of the collected weeds to pyrazosulfuron-ethyl [19]: resistant
